Test results: the NIST ThermoML archive (doi:10.1016/j.jct.2019.03.007)
“And” between values parts separate entries of the source, which are not always exact repeats. Equal entries are not always repeated. ± gives the expanded uncertainty stated by the source.

Columns and labels:
[1] = Molar enthalpy of transition or fusion; settings: DSC
[2] = for molar volume: 100 kPa, X-ray diffraction; for Triple point temperature: DSC

Structure (SMILES): O=[N+]([O-])[O-].O=[N+]([O-])[O-].[Ca+2] [calcium nitrate]
- Molar enthalpy of transition or fusion ([1]; Crystal 1): 7.98 ± 0.502 kcal/mol
- Molar enthalpy of transition or fusion ([1]; Crystal 2): 0.0289 ± 0.0263 kcal/mol
- molar volume ([2]; 298 K, Crystal 1): 6.616e-05 ± 5.4e-08 m3/mol and 6.614e-05 ± 5.4e-08 m3/mol
- molar volume ([2]; 323 K, Crystal 1): 6.637e-05 ± 5.4e-08 m3/mol and 6.638e-05 ± 5.4e-08 m3/mol
- molar volume ([2]; 348 K, Crystal 1): 6.658e-05 ± 5.4e-08 m3/mol
- molar volume ([2]; 373 K, Crystal 1): 6.68e-05 ± 5.4e-08 m3/mol
- molar volume ([2]; 398 K, Crystal 1): 6.702e-05 ± 5.4e-08 m3/mol and 6.703e-05 ± 5.4e-08 m3/mol
- molar volume ([2]; 423 K, Crystal 1): 6.725e-05 ± 5.4e-08 m3/mol and 6.726e-05 ± 5.4e-08 m3/mol
- molar volume ([2]; 448 K, Crystal 1): 6.748e-05 ± 5.4e-08 m3/mol and 6.749e-05 ± 5.4e-08 m3/mol
- molar volume ([2]; 473 K, Crystal 1): 6.771e-05 ± 5.4e-08 m3/mol and 6.773e-05 ± 5.4e-08 m3/mol
- molar volume ([2]; 498 K, Crystal 1): 6.794e-05 ± 5.5e-08 m3/mol and 6.797e-05 ± 5.5e-08 m3/mol
- molar volume ([2]; 523 K, Crystal 1): 6.818e-05 ± 5.5e-08 m3/mol and 6.821e-05 ± 5.5e-08 m3/mol
- molar volume ([2]; 548 K, Crystal 1): 6.845e-05 ± 5.5e-08 m3/mol and 6.842e-05 ± 5.5e-08 m3/mol
- molar volume ([2]; 573 K, Crystal 1): 6.871e-05 ± 5.5e-08 m3/mol and 6.866e-05 ± 5.5e-08 m3/mol
- molar volume ([2]; 598 K, Crystal 1): 6.9e-05 ± 5.5e-08 m3/mol and 6.89e-05 ± 5.5e-08 m3/mol
- molar volume ([2]; 623 K, Crystal 1): 6.92e-05 ± 5.5e-08 m3/mol and 6.915e-05 ± 5.5e-08 m3/mol
- molar volume ([2]; 648 K, Crystal 1): 6.945e-05 ± 5.6e-08 m3/mol and 6.94e-05 ± 5.5e-08 m3/mol
- molar volume ([2]; 673 K, Crystal 1): 6.97e-05 ± 5.6e-08 m3/mol and 6.967e-05 ± 5.6e-08 m3/mol
- molar volume ([2]; 698 K, Crystal 1): 6.994e-05 ± 5.6e-08 m3/mol and 6.992e-05 ± 5.6e-08 m3/mol
- molar volume ([2]; 723 K, Crystal 1): 7.019e-05 ± 5.6e-08 m3/mol
- Triple point temperature ([2]; Crystal 1): 823 ± 4 K
- Triple point temperature ([2]; Crystal 2): 290 ± 4 K
